In ChEMBL document CHEMBL3046426, “Analytical and biological characterization of quinazoline semicarbazone derivatives” (Med Chem Res, 2010):

Legend:
[1] = Solubility of the compound in dilute acids; assay type: physicochemical
[2] = Solubility of the compound in DMF; assay type: physicochemical
[3] = test system: Micrococcus luteus; assay: Antibacterial activity against Micrococcus luteus NCIM 2155 after 18 hr by disk diffusion method; assay type: functional; also: test concentration or dose not given here
[4] = test system: Salmonella paratyphi; assay: Antibacterial activity against Salmonella enterica subsp. enterica serovar Paratyphi A NCIM […] after 18 hr by disk diffusion method; assay type: functional
[5] = test system: Staphylococcus; assay: Antibacterial activity against Staphylococcus albus NCIM 2178 after 18 hr by disk diffusion method; assay type: functional; also: test concentration or dose not given here
[6] = test system: Bacillus cereus; assay: Antibacterial activity against Bacillus cereus NCIM 2018 after 18 hr by disk diffusion method; assay type: functional; also: test concentration or dose not given here
[7] = test system: Candida albicans; assay: Antifungal activity against Candida albicans NCIM 0707 after 18 hr by disk diffusion method; assay type: functional; also: test concentration or dose not given here
[8] = Solubility of the compound in DMSO; assay type: physicochemical
[9] = test system: Lederbergia lenta; assay: Antibacterial activity against Bacillus lentus NCIM 2018 after 18 hr by disk diffusion method; assay type: functional; also: test concentration or dose not given here
[10] = Solubility of the compound in ethanol; assay type: physicochemical
[11] = Solubility of the compound in acetic acid; assay type: physicochemical
[12] = Solubility of the compound in water; assay type: physicochemical
[13] = Solubility of the compound in benzene; assay type: physicochemical
[14] = Solubility of the compound in chloroform; assay type: physicochemical
[15] = test system: Klebsiella aerogenes; assay: Antibacterial activity against Enterobacter aerogenesNCIM 2075 after 18 hr by disk diffusion method; assay type: functional, NCIM 2075; also: test concentration or dose not given here
[16] = Solubility of the compound in ethyl acetate; assay type: physicochemical
[17] = test system: Escherichia coli; assay: Antibacterial activity against Escherichia coli NCIM 2065 after 18 hr by disk diffusion method; assay type: functional; also: test concentration or dose not given here
[18] = test system: Proteus vulgaris; assay: Antibacterial activity against Proteus vulgaris NCIM 2239 after 18 hr by disk diffusion method; assay type: functional; also: test concentration or dose not given here

Structure (SMILES)	solubility [1]	solubility [2]	diameter of the inhibition zone (DIZ) [3] [mm]	diameter of the inhibition zone (DIZ) [4] [mm]	diameter of the inhibition zone (DIZ) [5] [mm]	diameter of the inhibition zone (DIZ) [6] [mm]	diameter of the inhibition zone (DIZ) [7] [mm]	solubility [8]	diameter of the inhibition zone (DIZ) [9] [mm]	solubility [10]	solubility [11]	solubility [12]	solubility [13]	solubility [14]	diameter of the inhibition zone (DIZ) [15] [mm]	solubility [16]	diameter of the inhibition zone (DIZ) [17] [mm]	diameter of the inhibition zone (DIZ) [18] [mm]
COc1cc(/C=N/NC(=O)Nn2c(-c3ccccc3)nc3ccccc3c2=O)ccc1O	soluble	soluble	15	15	13	14	21	soluble	18	soluble	soluble	Insoluble	soluble	soluble	16	soluble	19	16
O=C(N/N=C1/C(=O)Nc2ccccc21)Nn1c(-c2ccccc2)nc2ccccc2c1=O	soluble	soluble	16	16	13	12	22	soluble	17	soluble	soluble	Insoluble	soluble	soluble	17	soluble	21	17
CC12CCC(C/C1=N/NC(=O)Nn1c(-c3ccccc3)nc3ccccc3c1=O)C2(C)C (centres undefined)	Insoluble	soluble	14	15	12	14	20	soluble	17	soluble	Insoluble	Insoluble	Insoluble	soluble	16	soluble	18	17
O=C(NN=C(c1ccccc1)c1ccccc1)Nn1c(-c2ccccc2)nc2ccccc2c1=O	Insoluble	soluble	12	16	10	15	25	soluble	17	soluble	Insoluble	Insoluble	soluble	soluble	15	soluble	21	16
CN(C)c1ccc(/C=N/NC(=O)Nn2c(-c3ccccc3)nc3ccccc3c2=O)cc1	Insoluble	soluble	16	15	16	17	21	soluble	18	soluble	Insoluble	Insoluble	soluble	soluble	17	soluble	19	18
O=C(O)c1cn(C2CC2)c2cc(N3CCNCC3)c(F)cc2c1=O [CIPROFLOXACIN]			8	8	8	9			9						10		16	8
Clc1ccccc1C(c1ccccc1)(c1ccccc1)n1ccnc1 [CLOTRIMAZOLE]							14											
